This passage reports Activity, MIC50 and MIC90 results from ChEMBL document CHEMBL1143836, “Predictors of mortality in patients with bloodstream infections caused by extended-spectrum-beta-lactamase-producing Enterobacteriaceae: importance of inadequate initial antimicrobial treatment” (2007).

Each structure is given as a SMILES string. Converted amounts (≈) assume the structure as drawn.

The test system of assay [1] is Proteus mirabilis. Nature of the assay: Antimicrobial activity against extended-spectrum-beta-lactamase producing Proteus mirabilis assessed as percent resistant isolates. It counts as functional.
For assay [2], the system named is Klebsiella pneumoniae. Description: Antimicrobial activity against extended-spectrum-beta-lactamase producing Klebsiella pneumoniae isolates. The class given is functional.
The subject of assay [3] is Klebsiella pneumoniae. Description: Antimicrobial activity against extended-spectrum-beta-lactamase producing Klebsiella pneumoniae assessed as percent susceptible isolates.
Assay [4] deals with Proteus mirabilis. Nature of the assay: Antimicrobial activity against extended-spectrum-beta-lactamase producing Proteus mirabilis isolates. It counts as functional.
The test system of assay [5] is Escherichia coli. Description: Antimicrobial activity against extended-spectrum-beta-lactamase producing Escherichia coli isolates. The class given is functional.
Assay [6] concerns Escherichia coli. Nature of the assay: Antimicrobial activity against extended-spectrum-beta-lactamase producing Escherichia coli assessed as percent resistant isolates. The class given is functional.

On to `C[C@H]1[C@H](NC(=O)/C(=N\OC(C)(C)C(=O)O)c2csc(N)n2)C(=O)N1S(=O)(=O)O` (stereo in doubt) [AZTREONAM], for which the Activity in the assay on Proteus mirabilis [1] and in the assay with Klebsiella pneumoniae [3] was 0% throughout. The values for the MIC50 against Klebsiella pneumoniae [2], in the assay with Proteus mirabilis [4] and against Escherichia coli [5] were 256 µg/mL (≈ 588 µM), 0.25 µg/mL (≈ 0.574 µM) and 256 µg/mL (≈ 588 µM), respectively. The MIC90 in the assay with Klebsiella pneumoniae [2] turned out to be 256 µg/mL (≈ 588 µM); in the assay on Proteus mirabilis [4], 1 µg/mL (≈ 2.3 µM); in the assay with Escherichia coli [5], 256 µg/mL (≈ 588 µM).
In the case of `NCC[C@H](O)C(=O)N[C@@H]1C[C@H](N)[C@@H](O[C@H]2O[C@H](CN)[C@@H](O)[C@H](O)[C@H]2O)[C@H](O)[C@H]1O[C@H]1O[C@H](CO)[C@@H](O)[C@H](N)[C@H]1O` [AMIKACIN], the Activity came to 98.1% in the assay with Escherichia coli [6], 100% in the assay on Proteus mirabilis [1] and 91.4% with Klebsiella pneumoniae [3]. Also, the MIC50 in the assay on Klebsiella pneumoniae [2], against Proteus mirabilis [4] and in the assay on Escherichia coli [5] was 2 µg/mL (≈ 3.42 µM) each time. For the same molecule, the MIC90 against Klebsiella pneumoniae [2] worked out at 16 µg/mL (≈ 27.3 µM); in the assay on Proteus mirabilis [4] it was 4 µg/mL (≈ 6.83 µM); against Escherichia coli [5] it was 8 µg/mL (≈ 13.7 µM).
In the case of `CO/N=C(\C(=O)N[C@@H]1C(=O)N2C(C(=O)[O-])=C(C[N+]3(C)CCCC3)CS[C@H]12)c1csc(N)n1` [CEFEPIME], the Activity in the assay with Escherichia coli [6], in the assay on Proteus mirabilis [1] and in the assay with Klebsiella pneumoniae [3] was 0% each time. Also, the MIC50 worked out at 1 µg/mL (≈ 2.08 µM) against Klebsiella pneumoniae [2], 2 µg/mL (≈ 4.16 µM) against Proteus mirabilis [4] and 16 µg/mL (≈ 33.3 µM) against Escherichia coli [5]. Besides, the MIC90 in the assay with Klebsiella pneumoniae [2] was determined as 256 µg/mL (≈ 533 µM); in the assay with Proteus mirabilis [4], 32 µg/mL (≈ 66.6 µM); in the assay on Escherichia coli [5], 256 µg/mL (≈ 533 µM).
In the case of `CO/N=C(\C(=O)N[C@@H]1C(=O)N2C(C(=O)O)=C(COC(C)=O)CS[C@H]12)c1csc(N)n1` [CEFOTAXIME], the Activity in the assay with Escherichia coli [6], in the assay with Proteus mirabilis [1] and in the assay with Klebsiella pneumoniae [3] was 0% throughout. For the same molecule, the MIC50 in the assay with Klebsiella pneumoniae [2] was found to be 8 µg/mL (≈ 17.6 µM); against Proteus mirabilis [4], 16 µg/mL (≈ 35.1 µM); against Escherichia coli [5], 256 µg/mL (≈ 562 µM). Moreover, the MIC90 against Klebsiella pneumoniae [2], in the assay with Proteus mirabilis [4] and against Escherichia coli [5] was 256 µg/mL (≈ 562 µM) throughout.
In the case of `CO[C@@]1(NC(=O)Cc2cccs2)C(=O)N2C(C(=O)O)=C(COC(N)=O)CS[C@@H]21` [CEFOXITIN], the Activity with Escherichia coli [6] is reported as 71.1%; in the assay with Proteus mirabilis [1], 0%; in the assay on Klebsiella pneumoniae [3], 74.1%. For the same molecule, the MIC50 in the assay with Klebsiella pneumoniae [2], against Proteus mirabilis [4] and with Escherichia coli [5] was 2 µg/mL (≈ 4.68 µM) throughout. Also, the results for the MIC90 in the assay with Klebsiella pneumoniae [2], in the assay with Proteus mirabilis [4] and in the assay on Escherichia coli [5] were at least 64 µg/mL, 8 µg/mL (≈ 18.7 µM) and at least 64 µg/mL, respectively.
For `CC(C)(O/N=C(\C(=O)N[C@@H]1C(=O)N2C(C(=O)[O-])=C(C[n+]3ccccc3)CS[C@H]12)c1csc(N)n1)C(=O)O` [CEFTAZIDIME], the Activity in the assay on Escherichia coli [6], with Proteus mirabilis [1] and with Klebsiella pneumoniae [3] was 0% in each case. For the same molecule, the MIC50 was 256 µg/mL (≈ 468 µM) against Klebsiella pneumoniae [2], 4 µg/mL (≈ 7.32 µM) against Proteus mirabilis [4] and 256 µg/mL (≈ 468 µM) in the assay on Escherichia coli [5]. In addition, the MIC90 in the assay with Klebsiella pneumoniae [2] stood at 256 µg/mL (≈ 468 µM); against Proteus mirabilis [4], 16 µg/mL (≈ 29.3 µM); in the assay with Escherichia coli [5], 256 µg/mL (≈ 468 µM).
As for `O=C(O)c1cn(C2CC2)c2cc(N3CCNCC3)c(F)cc2c1=O` [CIPROFLOXACIN], the Activity is 8.6% with Escherichia coli [6], 12.5% in the assay on Proteus mirabilis [1] and 46.5% with Klebsiella pneumoniae [3]. In addition, the MIC50 with Klebsiella pneumoniae [2] is 2 µg/mL (≈ 6.04 µM); in the assay with Proteus mirabilis [4], at least 16 µg/mL; against Escherichia coli [5] it was at least 16 µg/mL. The MIC90 in the assay on Klebsiella pneumoniae [2], in the assay with Proteus mirabilis [4] and in the assay on Escherichia coli [5] was at least 16 µg/mL throughout.
Turning to `C[C@@H](O)[C@H]1C(=O)N2C(C(=O)O)=C(SCCNC=N)C[C@H]12` [IMIPENEM ANHYDROUS], the Activity in the assay on Escherichia coli [6], in the assay with Proteus mirabilis [1] and in the assay with Klebsiella pneumoniae [3] was 100% throughout. The MIC50 against Klebsiella pneumoniae [2] turned out to be 0.25 µg/mL (≈ 0.835 µM); in the assay with Proteus mirabilis [4] it was 1 µg/mL (≈ 3.34 µM). Further, the MIC90 is 0.25 µg/mL (≈ 0.835 µM) with Klebsiella pneumoniae [2] and 4 µg/mL (≈ 13.4 µM) against Proteus mirabilis [4].
On to `C[C@H]1COc2c(N3CCN(C)CC3)c(F)cc3c(=O)c(C(=O)O)cn1c23.C[C@H]1COc2c(N3CCN(C)CC3)c(F)cc3c(=O)c(C(=O)O)cn1c23.O` [LEVOFLOXACIN], for which the figures for the Activity in the assay on Escherichia coli [6], with Proteus mirabilis [1] and in the assay with Klebsiella pneumoniae [3] were 8.6%, 12.5% and 48.2%, respectively. The MIC50 against Klebsiella pneumoniae [2] is 2 µg/mL; with Proteus mirabilis [4] it was at least 32 µg/mL; in the assay with Escherichia coli [5], at least 32 µg/mL. Besides, the MIC90 against Klebsiella pneumoniae [2], in the assay on Proteus mirabilis [4] and in the assay with Escherichia coli [5] was at least 32 µg/mL throughout.
As to `C[C@@H](O)[C@H]1C(=O)N2C(C(=O)O)=C(S[C@@H]3CN[C@H](C(=O)N(C)C)C3)[C@H](C)[C@H]12` [MEROPENEM], the Activity in the assay with Escherichia coli [6], in the assay on Proteus mirabilis [1] and in the assay with Klebsiella pneumoniae [3] was 100% throughout. In addition, the MIC50 against Klebsiella pneumoniae [2], against Proteus mirabilis [4] and with Escherichia coli [5] was 0.03 µg/mL (≈ 0.0782 µM) throughout. Also, the MIC90 with Klebsiella pneumoniae [2], with Proteus mirabilis [4] and with Escherichia coli [5] was 0.25 µg/mL (≈ 0.652 µM) each time.
